Source: ChEMBL document CHEMBL1201862, “PubChem BioAssay data set” (2004)
The source made the active and inactive calls.

Assays:
[1] = molecular target: T1, Heat shock factor protein 1 (Mus musculus, UniProt P38532); assay: enhancement of HSF1-driven luciferase signal – cell-based, NIH3T3, luminescence, dose retest, confirmation (AID 435004); assay type: functional;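 note: stress induced by proteasome inhibitor MG132 added 30 min after compound; luciferase reporter driven by HSF1 response element in NIH3T3 cells; actives raise luminescence as potentiators of the MG132 stress response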
T1 sequence (P38532 whole entry): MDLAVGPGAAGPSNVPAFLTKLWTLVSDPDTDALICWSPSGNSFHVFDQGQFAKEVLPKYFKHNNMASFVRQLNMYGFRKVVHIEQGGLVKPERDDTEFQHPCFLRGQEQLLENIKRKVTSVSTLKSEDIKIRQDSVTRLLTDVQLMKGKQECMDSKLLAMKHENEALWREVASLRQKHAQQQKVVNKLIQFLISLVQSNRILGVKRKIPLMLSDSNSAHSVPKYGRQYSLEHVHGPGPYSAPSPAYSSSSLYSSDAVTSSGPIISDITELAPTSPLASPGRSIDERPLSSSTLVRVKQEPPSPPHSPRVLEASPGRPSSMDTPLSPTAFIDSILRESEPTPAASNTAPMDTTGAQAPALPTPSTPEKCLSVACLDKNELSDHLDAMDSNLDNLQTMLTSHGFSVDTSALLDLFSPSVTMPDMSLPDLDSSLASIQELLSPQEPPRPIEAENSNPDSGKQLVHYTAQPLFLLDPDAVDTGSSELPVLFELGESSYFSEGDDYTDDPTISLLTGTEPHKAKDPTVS

[2] = luciferase reporter signal suppression in cells – H4 neuroglioma cells, luminescence, dose response (AID 1990); assay type: functional, cell-based
[3] = Luminescence Cell-Based Dose Response HTS to Identify Inhibitors of 5'UTR Stem-Loop Driven Prion Protein mRNA Translation in H4 Neuroglioblastoma Cells. [Related pubchem assays: 1827 (Project Summary), 1813 (Primary HTS)]; assay type: functional
[4] = alpha-synuclein stem-loop luciferase translation blockers – H4 neuroglioma cells, luminescence, confirmation (AID 1988); assay type: functional, cell-based
Cytochrome P450 1A2 = molecular target: T2, Cytochrome P450 1A2 (Homo sapiens, UniProt P05177);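 note: PubChem cytochrome P450 panel assay, CYP1A2 panel member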
T2 sequence (P05177 whole entry): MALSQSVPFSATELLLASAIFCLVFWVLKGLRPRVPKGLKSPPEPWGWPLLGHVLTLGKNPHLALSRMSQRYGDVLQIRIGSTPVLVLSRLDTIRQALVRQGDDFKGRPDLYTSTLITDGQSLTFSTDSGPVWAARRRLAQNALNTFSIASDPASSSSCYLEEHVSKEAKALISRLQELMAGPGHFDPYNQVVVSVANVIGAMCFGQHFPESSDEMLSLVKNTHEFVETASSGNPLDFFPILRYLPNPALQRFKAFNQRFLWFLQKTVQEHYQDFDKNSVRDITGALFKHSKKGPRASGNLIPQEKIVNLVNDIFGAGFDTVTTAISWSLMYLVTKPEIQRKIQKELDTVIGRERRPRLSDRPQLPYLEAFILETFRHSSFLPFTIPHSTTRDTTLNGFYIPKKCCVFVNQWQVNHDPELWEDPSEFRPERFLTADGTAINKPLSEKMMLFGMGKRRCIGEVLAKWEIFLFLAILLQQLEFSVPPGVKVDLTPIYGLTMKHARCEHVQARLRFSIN

[5] = molecular target: T3, Corticotropin-releasing factor receptor 2/Corticotropin-releasing factor-binding protein (Homo sapiens, UniProt P24387+Q13324); assay: Dose Response confirmation of uHTS hits for small molecule antagonists of the CRF-binding protein and CRF-R2 receptor complex.; assay type: functional; settings: read-out: IC50_Mean
T3 sequence (Q13324 whole entry): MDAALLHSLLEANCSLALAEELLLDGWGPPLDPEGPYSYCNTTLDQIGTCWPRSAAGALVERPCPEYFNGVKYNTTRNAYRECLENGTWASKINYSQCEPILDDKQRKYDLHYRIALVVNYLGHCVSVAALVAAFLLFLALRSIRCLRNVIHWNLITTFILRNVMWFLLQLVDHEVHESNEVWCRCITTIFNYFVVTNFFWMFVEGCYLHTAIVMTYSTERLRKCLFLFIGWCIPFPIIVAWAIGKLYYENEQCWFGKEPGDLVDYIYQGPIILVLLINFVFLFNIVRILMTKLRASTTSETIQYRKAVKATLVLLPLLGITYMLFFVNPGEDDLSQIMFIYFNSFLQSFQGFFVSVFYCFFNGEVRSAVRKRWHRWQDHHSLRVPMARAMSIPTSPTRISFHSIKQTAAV
T3 sequence (P24387 whole entry): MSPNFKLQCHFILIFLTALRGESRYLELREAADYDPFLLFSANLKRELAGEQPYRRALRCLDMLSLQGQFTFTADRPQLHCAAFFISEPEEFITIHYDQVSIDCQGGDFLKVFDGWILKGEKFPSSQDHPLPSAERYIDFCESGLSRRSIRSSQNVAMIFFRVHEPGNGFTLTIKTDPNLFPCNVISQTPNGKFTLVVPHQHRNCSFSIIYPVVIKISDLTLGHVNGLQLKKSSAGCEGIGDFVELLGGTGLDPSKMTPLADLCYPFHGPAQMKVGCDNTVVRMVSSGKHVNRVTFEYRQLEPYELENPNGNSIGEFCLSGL

[6] = molecular target: T3, Corticotropin-releasing factor receptor 2/Corticotropin-releasing factor-binding protein; assay: activators of CRF receptor 2 with binding protein – uHTS hits, confirmation (AID 602473); assay type: functional; settings: read-out: EC50_Mean
[7] = molecular target: T4, Rac GTPase-activating protein 1 (Homo sapiens, UniProt Q9H0H5); assay: blockers of MgcRacGAP-driven Rac1 GTP hydrolysis – biochemical, ADP Hunter fluorescence, primary and confirmatory, confirmation (AID 624330); assay type: functional
T4 sequence (Q9H0H5 whole entry): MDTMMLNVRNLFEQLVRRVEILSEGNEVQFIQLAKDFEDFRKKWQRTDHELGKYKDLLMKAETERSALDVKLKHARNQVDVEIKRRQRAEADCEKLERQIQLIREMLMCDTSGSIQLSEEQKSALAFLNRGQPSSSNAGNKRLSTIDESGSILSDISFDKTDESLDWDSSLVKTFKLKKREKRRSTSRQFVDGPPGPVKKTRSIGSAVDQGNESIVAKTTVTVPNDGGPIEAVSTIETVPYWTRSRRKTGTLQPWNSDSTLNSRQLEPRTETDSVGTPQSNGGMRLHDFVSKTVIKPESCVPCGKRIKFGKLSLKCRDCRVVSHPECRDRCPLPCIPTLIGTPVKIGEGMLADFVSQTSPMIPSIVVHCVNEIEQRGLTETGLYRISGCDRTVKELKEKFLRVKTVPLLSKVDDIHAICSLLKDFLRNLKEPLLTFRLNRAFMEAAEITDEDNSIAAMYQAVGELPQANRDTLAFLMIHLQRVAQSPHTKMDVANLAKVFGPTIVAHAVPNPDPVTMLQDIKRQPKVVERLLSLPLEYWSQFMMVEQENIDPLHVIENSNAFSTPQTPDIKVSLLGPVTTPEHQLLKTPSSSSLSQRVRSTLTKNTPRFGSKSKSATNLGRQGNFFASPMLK

Cytochrome P450 2C19 = Cytochrome P450 2C19 (Homo sapiens, UniProt P33261); assay: Cytochrome panel assay with activity outcomes. Panel member name: p450-cyp2c19 Compounds with AC50 equal or less than 10 uM are considered active; assay type: functional; settings: read-out: AC50
[8] = Trypanosoma cruzi growth suppression in host cells – NIH3T3 host cells, beta-gal luminescence, confirmation (AID 2044); assay type: functional, cell-based;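 note: intracellular parasites grown in NIH/3T3 mouse fibroblasts as host cells; luminescent beta-galactosidase reporter signal from transgenic T. cruzi replicating inside host cells; inhibitors lower the luminescence signal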
[9] = NIH3T3 cell viability loss – ATP luminescence, mouse fibroblasts, counter-screen, dose response (AID 2010); assay type: functional, cell-based;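 note: cells exposed to compound for about 90 hours before reading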
Cytochrome P450 3A4 = Cytochrome P450 3A4 (Homo sapiens, UniProt P08684);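 note: CYP3A4 tested as one member of a cytochrome P450 panel screen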
Cytochrome P450 2C9 = Cytochrome P450 2C9 (Homo sapiens, UniProt P11712)
Cytochrome P450 2C9, sequence (P11712 whole entry): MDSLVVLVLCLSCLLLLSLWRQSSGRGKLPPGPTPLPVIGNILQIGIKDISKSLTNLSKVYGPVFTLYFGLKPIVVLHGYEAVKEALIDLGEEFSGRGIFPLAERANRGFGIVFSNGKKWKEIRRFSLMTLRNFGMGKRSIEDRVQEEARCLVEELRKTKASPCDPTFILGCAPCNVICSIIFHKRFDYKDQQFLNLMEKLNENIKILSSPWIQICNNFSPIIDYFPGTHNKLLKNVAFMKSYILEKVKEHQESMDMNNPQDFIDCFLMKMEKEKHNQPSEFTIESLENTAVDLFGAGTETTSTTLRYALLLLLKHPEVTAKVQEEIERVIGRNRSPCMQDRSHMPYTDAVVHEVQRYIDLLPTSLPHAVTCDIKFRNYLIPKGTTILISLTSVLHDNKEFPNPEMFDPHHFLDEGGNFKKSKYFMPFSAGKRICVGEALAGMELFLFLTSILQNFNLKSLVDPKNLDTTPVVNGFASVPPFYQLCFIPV

Cytochrome P450 2C19, sequence (P33261 whole entry): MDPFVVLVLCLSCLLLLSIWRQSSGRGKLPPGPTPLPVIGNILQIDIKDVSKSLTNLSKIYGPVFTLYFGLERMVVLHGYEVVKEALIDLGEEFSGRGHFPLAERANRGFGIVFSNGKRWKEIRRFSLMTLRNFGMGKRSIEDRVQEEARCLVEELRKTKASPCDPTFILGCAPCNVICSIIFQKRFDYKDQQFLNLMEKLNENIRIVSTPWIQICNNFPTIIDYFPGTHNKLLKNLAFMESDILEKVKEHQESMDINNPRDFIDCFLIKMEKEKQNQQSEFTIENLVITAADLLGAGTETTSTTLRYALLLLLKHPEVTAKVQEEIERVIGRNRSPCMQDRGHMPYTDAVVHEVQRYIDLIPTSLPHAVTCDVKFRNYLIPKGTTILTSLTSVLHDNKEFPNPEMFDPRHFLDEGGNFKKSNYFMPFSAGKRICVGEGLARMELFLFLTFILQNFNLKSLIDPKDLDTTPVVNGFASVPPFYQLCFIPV
Cytochrome P450 3A4, sequence (P08684 whole entry): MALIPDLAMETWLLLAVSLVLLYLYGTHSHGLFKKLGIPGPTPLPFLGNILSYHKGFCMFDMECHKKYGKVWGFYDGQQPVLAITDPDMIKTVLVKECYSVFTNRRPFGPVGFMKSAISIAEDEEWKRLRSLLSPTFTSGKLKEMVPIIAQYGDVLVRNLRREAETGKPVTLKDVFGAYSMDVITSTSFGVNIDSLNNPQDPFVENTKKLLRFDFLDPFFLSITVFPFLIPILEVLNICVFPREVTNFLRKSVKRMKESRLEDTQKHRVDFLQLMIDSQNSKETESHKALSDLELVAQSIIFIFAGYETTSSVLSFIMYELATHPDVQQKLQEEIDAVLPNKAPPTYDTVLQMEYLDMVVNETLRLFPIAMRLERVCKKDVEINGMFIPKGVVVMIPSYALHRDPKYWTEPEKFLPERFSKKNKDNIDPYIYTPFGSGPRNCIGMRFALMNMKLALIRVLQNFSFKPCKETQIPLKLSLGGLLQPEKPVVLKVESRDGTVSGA

Cc1cccc(S(=O)(=O)NCCC(=O)OC(C)C(=O)NC(=O)NC2CCCCC2)c1 (stereo not drawn)
EC50 [1]: > 260 µM (inactive)

N#Cc1ccsc1NC(=O)COC(=O)CCCSc1nc2ccccc2s1
EC50 [2]: > 120 µM (not active) | EC50 [3]: > 120 µM (not active) | EC50 [4]: 16.1 µM (active)

COC(=O)[C@@]1(Cc2ccc(F)cc2)[C@H]2c3cc(C(=O)N(C)C)n(Cc4cccc5ccccc45)c3C[C@H]2CN1C(=O)c1ccccc1
AC50 (Cytochrome P450 1A2): 6.31 µM (inconclusive)

Brc1ccccc1Cn1c(-c2cncs2)nc2ccccc21
EC50 [2]: 17.1 µM (active) | EC50 [3]: > 120 µM (not active) | EC50 [4]: > 120 µM (not active)

Cc1nn(C(C)C(=O)NCCCN2CCCCC2C)c(=O)c2c1sc1ccccc12 (stereo not drawn)
EC50 [1]: > 260 µM (inactive)

Cc1cc2occ(CC(=O)NCc3cccs3)c2cc1C(C)C
EC50 [1]: > 260 µM (inactive)

COc1ccc(Nc2ccccc2)c(C)c1
IC50 [5]: > 47.1 µM (inactive) | EC50 [6]: > 53 µM (inactive) | IC50 [7]: 44.9 µM (active)

O=C(c1ccco1)N(Cc1ccc([N+](=O)[O-])cc1)c1ccc(Br)cc1
EC50 [1]: > 260 µM (inactive)

COC(=O)C1=C(C)N(Cc2ccc(C)cc2)C(=O)/C1=C\c1cc(OC)c(OC)c(OC)c1
EC50 [1]: 11.6 µM (active)

O=c1c(-c2ccccc2)nc2cnc(N3CCNCC3)nc2n1Cc1ccc(F)cc1
AC50 (Cytochrome P450 2C19): 31.6 µM (inconclusive) | AC50 (Cytochrome P450 1A2): 20 µM (inconclusive)

Cn1c(C(=O)OC(C(=O)NC(C)(C)C)c2cccnc2)cc2sccc21 (stereo not drawn)
EC50 [8]: 1.23 µM (active) | EC50 [9]: 48.4 µM (active) | EC50 [1]: > 260 µM (inactive)

O=c1c(-c2ccc(Cl)cc2)nc2cnc(N3CCNCC3)nc2n1Cc1ccc(F)cc1
AC50 (Cytochrome P450 2C19): 39.8 µM (inconclusive) | AC50 (Cytochrome P450 1A2): 15.8 µM (inconclusive) | AC50 (Cytochrome P450 3A4): 12.6 µM (inconclusive)

N[C@H](C(=O)O)C1[C@H](C(=O)O)[C@H]1C(=O)O (stereo partly drawn)
AC50 (Cytochrome P450 2C19): 31.6 µM (inconclusive) | AC50 (Cytochrome P450 1A2): 31.6 µM (inconclusive)

CCN1CCSc2ccc(C(=O)NCc3cccc(Br)c3)cc21
EC50 [1]: > 260 µM (inactive)

Cc1ccc(C(=O)Cn2nc(C(=O)O)c3ccccc3c2=O)cc1C
EC50 [1]: > 260 µM (inactive)

O=C(Nc1ccc2c(c1)OCO2)c1nn(-c2ccccc2)c(=O)c2ccccc12
EC50 [2]: > 120 µM (not active) | EC50 [3]: 24 µM (active) | EC50 [4]: > 120 µM (not active)

Nc1c(S(=O)(=O)c2ccccc2)c2nc3ccccc3nc2n1Cc1ccco1
AC50 (Cytochrome P450 1A2): 22.4 µM (inconclusive)

COc1ccc(N(CC(=O)Nc2ccc(S(=O)(=O)N3CCCCC3)cc2)S(C)(=O)=O)cc1OC
EC50 [2]: > 120 µM (not active) | EC50 [3]: > 120 µM (not active) | EC50 [4]: > 120 µM (not active)

COCCN(C(=O)C(C)C)c1nnc(-c2ccc(C)cc2)s1
AC50 (Cytochrome P450 1A2): 12.6 µM (inconclusive)

Cc1cccn2c(=O)nc(SCC(=O)N3N=C(c4cccs4)CC3c3ccc(F)cc3)nc12 (stereo not drawn)
EC50 [8]: 1.48 µM (active) | EC50 [9]: 11.6 µM (active) | EC50 [1]: > 260 µM (inactive)

COc1ccc(CNC2CCSc3ccccc32)cc1OC (stereo not drawn)
EC50 [1]: > 260 µM (inactive)

Cc1ccc(-n2ccc(=O)c(-c3ccnc(SCc4cccc(Cl)c4)n3)n2)cc1
AC50 (Cytochrome P450 1A2): 14.1 µM (inconclusive)

CSc1nsc(/C=C/Nc2ccc(Cl)cc2)c1C#N
AC50 (Cytochrome P450 2C19): 3.55 µM (inconclusive) | AC50 (Cytochrome P450 1A2): 5.62 µM (inconclusive)

Cc1sc2ncnc(Sc3ccccc3C(=O)Nc3ccc(C#N)cc3)c2c1C
IC50 [5]: > 47.1 µM (inactive) | EC50 [6]: > 53 µM (inactive)

Cc1nnsc1-c1onc(C)c1C(=O)O/N=C/c1ccc(Cl)cc1
IC50 [5]: > 47.1 µM (inactive) | EC50 [6]: > 53 µM (inactive)

O=C(COC(=O)CCc1ccc(S(=O)(=O)N2CCOCC2)cc1)Nc1ccccc1OC(F)F
IC50 [5]: > 47.1 µM (inactive) | EC50 [6]: > 53 µM (inactive)

COc1cccc(Cn2c(=O)c(CCc3ccccc3)nc3cncnc32)c1
AC50 (Cytochrome P450 2C19): 25.1 µM (inconclusive) | AC50 (Cytochrome P450 1A2): 12.6 µM (inconclusive) | AC50 (Cytochrome P450 2C9): 12.6 µM (inconclusive)

O=C(CSCc1ccccc1)Nc1cc([N+](=O)[O-])ccc1F
IC50 [5]: > 47.1 µM (inactive) | EC50 [6]: > 53 µM (inactive)

Cc1cc(F)c(F)c(C(=O)N2CCOCC2)c1Cl
EC50 [1]: > 260 µM (inactive)

COC(=O)[C@@]1(Cc2ccc(OC)cc2)[C@H]2c3cc(C(=O)N4CCCC4)n(Cc4ccc(Cl)c(C(F)(F)F)c4)c3C[C@H]2CN1C(=O)c1ccccc1
AC50 (Cytochrome P450 1A2): 12.6 µM (inconclusive) | AC50 (Cytochrome P450 3A4): 1.26 µM (inconclusive)

COc1ccc(C(=O)CC(=O)C(=O)Nc2cc(OC)c(OC)c(OC)c2)cc1
EC50 [1]: > 260 µM (inactive)

CC(=O)Nc1ccc2c(c1)N(C(=O)CN(C)C)c1ccccc1CC2
EC50 [1]: > 260 µM (inactive)
